Experiments:
Type in all cases: physicochemical
[1] = Drug shielding effect on Nylon 12 film, PTX release in PBS; settings: PBS pH 7.4, 37° C.
Method: (§1) Compounds 1, 7, and 14 (200 mg/mL) were dissolved in THF. PTX was added to each solution to make a 25 mg/mL solution. Nylon 12 film sheets were cut 1×1 cm size, blend solution was drop cast on the film sheet, dried in a 50° C. flow oven for 1 day. PTX alone was prepared the same way and used as the control. PBS pH 7.4 was pre-warmed to 37° C. Test articles and control articles were incubated in media (4 mL) at 37° C. for 10, 30, 60 and 120 minutes. At the end of each time point, media was exchanged and at the end of the study, the films were stripped with organic solvent, centrifuged, the supernatant collected, and solvent dried overnight at 60° C. The assessment of the drug shielding effect was analyzed by RP-HPLC with benzonitrile as the internal standard. 10 minute PTX release in PBS (ng/mL): Compound 1: 107.6, Compound 7: 79.7, Compound 14: 15.4, PTX alone: 651. The assessment of oligofluoro adhesion on film surface was done by NMR. A calibration curve for each compound was generated by NMR. Stripped coating was re-suspended in CDCl3 (1 mL) and NMR was performed. Quantity of remaining material was back calculated from NMR integration area. Percent remaining material after 120 minute incubation in PBS: Compound 1: 82.1, Compound 7: 85.5. Similar assessment of drug shielding on films was done with porcine whole blood. […]

[2] = Drug shielding on Nylon 12 film, PTX release in porcine whole blood
Method: as §1

[3] = Oligofluoro as solubilizing agent, drug release from coated nylon films in water; settings: drug at 4 wt %, nylon film, water 24 hours

10 minute PTX release in PBS [1]: 651 ng/mL | 10 minute PTX release in blood [2]: 75.6% | Percentage drug released in water [3]: 11%
Compound: CC(=O)O[C@H]1C(=O)[C@@]2(C)[C@H]([C@H](OC(=O)c3ccccc3)[C@]3(O)C[C@H](OC(=O)[C@H](O)[C@@H](NC(=O)c4ccccc4)c4ccccc4)C(C)=C1C3(C)C)[C@]1(OC(C)=O)CO[C@@H]1C[C@@H]2O [PTX, paclitaxel]

— patent US10195311B2, “Local delivery of drugs from self assembled coatings” (Interface Biologics, Inc., priority 2009, dated 2019)
